According to ChEMBL document CHEMBL3217520, “Histamine H3 receptor ligands with a 3-cyclobutoxy motif: a novel and versatile constraint of the classical 3-propoxy linker” (Medchemcomm, 2010):

Experiments:
Histamine H3 receptor [1] = biological target: T1, Histamine H3 receptor (Homo sapiens, UniProt Q9Y5N1); assay: Inverse agonist activity at human histamine H3 receptor expressed in CHO cells assessed as inhibition of [35S]-GTPgammaS binding by liquid scintillation counting; format: functional, cell-based
Histamine H3 receptor [2] = biological target: T1, Histamine H3 receptor; assay: Displacement of [3H]-Nalpha-methylhistamine from human histamine H3 receptor expressed in CHO cells by liquid scintillation counting; format: cell-based

T1 sequence (Q9Y5N1 whole entry): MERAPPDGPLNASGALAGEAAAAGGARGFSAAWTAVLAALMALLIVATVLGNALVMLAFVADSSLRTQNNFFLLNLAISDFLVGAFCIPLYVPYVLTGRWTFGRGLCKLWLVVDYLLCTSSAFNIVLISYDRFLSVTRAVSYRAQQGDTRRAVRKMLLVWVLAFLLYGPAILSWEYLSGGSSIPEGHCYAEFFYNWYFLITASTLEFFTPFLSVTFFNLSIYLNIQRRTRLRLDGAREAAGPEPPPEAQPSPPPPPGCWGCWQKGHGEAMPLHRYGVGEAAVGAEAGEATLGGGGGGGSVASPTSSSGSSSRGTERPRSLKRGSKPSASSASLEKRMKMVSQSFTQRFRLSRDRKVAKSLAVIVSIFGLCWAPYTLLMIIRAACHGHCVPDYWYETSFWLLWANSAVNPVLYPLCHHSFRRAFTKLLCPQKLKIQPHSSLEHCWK

| EC50 (Histamine H3 receptor [1]) | Ki (Histamine H3 receptor [2]) | SMILES |
| --- | --- | --- |
| 2 nM | 2 nM | c1cc(C2=NC3(CCCCC3)CO2)ccc1O[C@H]1C[C@H](N2CCCCC2)C1 |
| 1.58 nM | 6.31 nM | c1cc(-c2nc(CN3CCCCC3)co2)ccc1OCCCN1CCCCC1 |
| 1.58 nM | 2 nM | COC(=O)c1oc(-c2ccc(O[C@H]3C[C@H](N4CCCCC4)C3)cc2)nc1C |
| 7.94 nM | 79.4 nM | c1cc(C2=NC3(CCCCC3)CO2)ccc1OCCCN1CCCCC1 |
| 79.4 nM | 251 nM | c1cc(C2=NC3(CCCCC3)CO2)ccc1O[C@H]1C[C@@H](N2CCCCC2)C1 |

Continued, compound first:

| SMILES | EC50 (Histamine H3 receptor [1]) | Ki (Histamine H3 receptor [2]) |
| --- | --- | --- |
| CC1(C)COC(c2ccc(O[C@H]3C[C@H](N4CCCCC4)C3)cc2)=N1 | 0.631 nM | 7.94 nM |
| CC1(C)COC(c2ccc(OCCCN3CCCCC3)cc2)=N1 | 15.8 nM | 158 nM |
| c1cc(-c2nc(CN3CCCCC3)co2)ccc1O[C@H]1C[C@H](N2CCCCC2)C1 | 3.16 nM | 1.26 nM |
